Like-named read-outs stand apart in the source and are kept apart here.

Experimental findings from patent US20230295131A1, “INHIBITORS OF RHO-ASSOCIATED COILED-COIL KINASE” (Angion Biomedica Corp., priority 2020, published 2023) are described below.

One test concerns the target T1, ROCK1 (Homo sapiens, UniProt Q13464).
T1 construct: T7 phage fusion (kinase-tagged phage) or DNA tag for qPCR detection
As to the kind of experiment: ROCK1 kinase binding affinity, DiscoverX KINOMEscan KdELECT. As to conditions: 11-point 3-fold dilution. How it is done: (§1) 1. ROCK1 and ROCK2 kinase assays: The ROCK1 and ROCK2 kinase binding affinities of compounds in this disclosure were determined by DiscoverX's KINOMEscan™ KdELECT technology (https://www.discoverx.com/kinomescan-elect-kinase-screening-and-profiling-services): Kinase-tagged T7 phage strains were prepared in an E. coli host derived from the BL21 strain. E. coli were grown to log-phase and infected with T7 phage and incubated with shaking at 32° C. until lysis. The lysates were centrifuged and filtered to remove cell debris. The remaining kinases were produced in HEK-293 cells and subsequently tagged with DNA for qPCR detection. […] The liganded beads were blocked with excess biotin and washed with blocking buffer (SeaBlock (Pierce), 1% BSA, 0.05% Tween 20, 1 mM DTT) to remove unbound ligand and to reduce nonspecific binding. […] Kds were determined using an 11-point 3-fold compound dilution series with three DMSO control points. […] The compounds were then diluted directly into the assays such that the final concentration of DMSO was 0.9%. All reactions performed in polypropylene 384-well plate. Each was a final volume of 0.02 ml. […] The kinase concentration in the eluates was measured by qPCR.

Another test concerns the target T2, ROCK2 (Homo sapiens, UniProt O75116).
T2 construct: T7 phage fusion (kinase-tagged phage) or DNA tag for qPCR detection
As to the kind of experiment: ROCK2 kinase binding affinity, DiscoverX KINOMEscan KdELECT. Conditions: for ROCK2 Selectivity: selectivity for ROCK2 over ROCK1 from Kd. The procedure:
as §1

Where [1] appears, read: KINOMEscan KdELECT, 11-point 3-fold dilution, read-out: Kd (μM) ROCK2.

T1 sequence (Q13464 whole entry, the tested form may be a part): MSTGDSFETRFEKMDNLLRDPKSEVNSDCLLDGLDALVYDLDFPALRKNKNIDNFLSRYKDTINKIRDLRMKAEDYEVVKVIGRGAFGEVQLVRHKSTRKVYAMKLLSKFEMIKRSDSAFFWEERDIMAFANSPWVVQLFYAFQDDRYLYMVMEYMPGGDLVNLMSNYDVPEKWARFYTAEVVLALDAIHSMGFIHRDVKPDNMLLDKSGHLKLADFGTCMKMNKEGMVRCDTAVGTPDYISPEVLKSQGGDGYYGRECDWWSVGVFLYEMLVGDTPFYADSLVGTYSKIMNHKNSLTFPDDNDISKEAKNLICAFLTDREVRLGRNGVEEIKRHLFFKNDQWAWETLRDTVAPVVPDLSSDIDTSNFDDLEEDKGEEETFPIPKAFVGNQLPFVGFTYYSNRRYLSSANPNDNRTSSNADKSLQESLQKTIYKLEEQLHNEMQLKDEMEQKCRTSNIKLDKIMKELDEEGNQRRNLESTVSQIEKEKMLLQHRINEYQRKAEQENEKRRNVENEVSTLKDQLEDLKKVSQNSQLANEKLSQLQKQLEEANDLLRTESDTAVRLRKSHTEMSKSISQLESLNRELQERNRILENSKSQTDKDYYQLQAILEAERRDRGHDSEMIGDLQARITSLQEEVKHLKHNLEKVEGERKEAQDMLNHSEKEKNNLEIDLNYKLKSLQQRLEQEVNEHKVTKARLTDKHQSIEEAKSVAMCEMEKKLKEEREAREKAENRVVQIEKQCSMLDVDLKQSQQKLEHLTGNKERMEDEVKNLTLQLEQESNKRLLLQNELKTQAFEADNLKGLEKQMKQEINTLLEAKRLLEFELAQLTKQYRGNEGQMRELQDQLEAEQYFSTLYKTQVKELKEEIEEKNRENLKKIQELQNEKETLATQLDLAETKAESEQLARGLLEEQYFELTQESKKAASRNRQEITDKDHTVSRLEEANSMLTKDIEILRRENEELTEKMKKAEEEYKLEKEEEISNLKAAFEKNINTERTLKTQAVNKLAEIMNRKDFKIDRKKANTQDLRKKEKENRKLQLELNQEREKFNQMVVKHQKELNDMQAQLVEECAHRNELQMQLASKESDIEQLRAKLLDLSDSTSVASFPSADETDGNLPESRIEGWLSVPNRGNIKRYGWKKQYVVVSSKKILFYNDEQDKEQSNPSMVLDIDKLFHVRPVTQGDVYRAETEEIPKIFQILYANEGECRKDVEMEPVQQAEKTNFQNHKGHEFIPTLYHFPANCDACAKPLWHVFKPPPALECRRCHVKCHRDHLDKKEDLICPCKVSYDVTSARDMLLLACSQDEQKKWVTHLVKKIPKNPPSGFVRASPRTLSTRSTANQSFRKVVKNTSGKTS
T2 sequence (O75116 whole entry, the tested form may be a part): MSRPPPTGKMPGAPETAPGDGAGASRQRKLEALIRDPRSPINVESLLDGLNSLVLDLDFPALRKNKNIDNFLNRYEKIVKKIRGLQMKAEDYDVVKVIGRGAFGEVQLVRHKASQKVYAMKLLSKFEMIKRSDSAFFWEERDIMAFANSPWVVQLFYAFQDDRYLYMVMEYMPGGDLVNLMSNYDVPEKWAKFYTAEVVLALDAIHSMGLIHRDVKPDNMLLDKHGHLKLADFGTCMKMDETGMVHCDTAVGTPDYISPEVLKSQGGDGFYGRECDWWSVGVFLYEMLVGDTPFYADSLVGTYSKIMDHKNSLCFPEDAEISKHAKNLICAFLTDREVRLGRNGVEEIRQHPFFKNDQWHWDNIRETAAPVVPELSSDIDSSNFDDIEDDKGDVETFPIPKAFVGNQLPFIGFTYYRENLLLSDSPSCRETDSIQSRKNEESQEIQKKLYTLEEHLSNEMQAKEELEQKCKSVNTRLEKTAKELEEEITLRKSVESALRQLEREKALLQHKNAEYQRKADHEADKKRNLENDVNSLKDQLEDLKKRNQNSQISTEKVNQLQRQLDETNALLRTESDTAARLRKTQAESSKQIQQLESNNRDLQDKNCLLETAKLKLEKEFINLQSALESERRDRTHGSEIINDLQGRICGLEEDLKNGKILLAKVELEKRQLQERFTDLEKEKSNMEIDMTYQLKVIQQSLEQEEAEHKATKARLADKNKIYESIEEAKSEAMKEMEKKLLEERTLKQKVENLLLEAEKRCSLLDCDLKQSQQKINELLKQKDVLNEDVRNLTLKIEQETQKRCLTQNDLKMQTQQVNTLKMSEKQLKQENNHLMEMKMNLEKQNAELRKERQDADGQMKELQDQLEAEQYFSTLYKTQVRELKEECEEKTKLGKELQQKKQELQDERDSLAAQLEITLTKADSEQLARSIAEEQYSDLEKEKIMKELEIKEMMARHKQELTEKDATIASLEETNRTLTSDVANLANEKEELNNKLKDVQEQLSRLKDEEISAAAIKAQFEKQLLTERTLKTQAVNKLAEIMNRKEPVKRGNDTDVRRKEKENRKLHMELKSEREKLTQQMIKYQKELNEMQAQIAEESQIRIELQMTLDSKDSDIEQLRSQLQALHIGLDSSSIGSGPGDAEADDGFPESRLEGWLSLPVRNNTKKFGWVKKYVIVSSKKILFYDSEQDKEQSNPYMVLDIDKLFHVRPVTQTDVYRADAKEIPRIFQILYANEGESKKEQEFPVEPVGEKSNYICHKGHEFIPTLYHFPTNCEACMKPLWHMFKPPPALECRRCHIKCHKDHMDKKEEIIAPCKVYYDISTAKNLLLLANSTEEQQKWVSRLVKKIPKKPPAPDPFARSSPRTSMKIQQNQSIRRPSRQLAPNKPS

Take `COC(=O)[C@H]1CC[C@@H](Nc2nccc(-c3nccc(C#Cc4ccc5[nH]ncc5c4)n3)n2)CC1` [Ex. 91, (1s,4s)-Methyl 4-((4-((1H-indazol-5-yl)ethynyl)-[2,4′-bipyrimidin]-2′-yl)amino)cyclohexanecarboxylate]: the Kd at ROCK1 is 0.1 to 0.99 µM; on ROCK2 (setting [1]) it was less than 0.01 µM. Also, on ROCK2, the “ROCK2 Selectivity” value is given as “** (50 to 150-fold selectivity for ROCK2)”.
For `Fc1cc(F)c(F)c(CNc2nccc(-c3nccc(C#Cc4ccc5[nH]ncc5c4)n3)n2)c1` [Ex. 37, 4-((1H-Indazol-5-yl)ethynyl)-N-(2,3,5-trifluorobenzyl)-[2,4′-bipyrimidin]-2′-amine] the same measures were 1 to 9.9 µM, 0.01 to 0.099 µM and “*** (151 to 500-fold selectivity for ROCK2)”.
`COCCNc1nccc(-c2nccc(C#Cc3ccc4[nH]ncc4c3)n2)n1` [Ex. 75, 4-((1H-Indazol-5-yl)ethynyl)-N-(2-methoxyethyl)-[2,4′-bipyrimidin]-2′-amine]: the Kd is 1 to 9.9 µM on ROCK1 and less than 0.01 µM at ROCK2. The “ROCK2 Selectivity” value at ROCK2 was “*** (151 to 500-fold selectivity for ROCK2)”.
As to `CS(=O)(=O)CCNc1nccc(-c2nccc(C#Cc3ccc4[nH]ncc4c3)n2)n1` [Ex. 56, 4-((1H-Indazol-5-yl)ethynyl)-N-(2-(methylsulfonyl)ethyl)-[2,4′-bipyrimidin]-2′-amine], the dissociation constant (Kd) at ROCK1 was 1 to 9.9 µM; at ROCK2 (setting [1]), less than 0.01 µM. In addition, on ROCK2, the “ROCK2 Selectivity” value was “**** (>500-fold selectivity for ROCK2)”.
For `FC1(F)Oc2ccc(CNc3nccc(-c4nccc(C#Cc5ccc6[nH]ncc6c5)n4)n3)cc2O1` [Ex. 13, 4-((1H-Indazol-5-yl)ethynyl)-N-((2,2-difluorobenzo[d][1,3]dioxol-5-yl)methyl)-[2,4′-bipyrimidin]-2′-amine] the same measures were 10 to 100 µM, 0.1 to 0.99 µM and “** (50 to 150-fold selectivity for ROCK2)”.
For `O=C(CNc1nccc(-c2nccc(C#Cc3ccc4[nH]ncc4c3)n2)n1)N1CCCC1` [Ex. 52, 2-((4-((1H-Indazol-5-yl)ethynyl)-[2,4′-bipyrimidin]-2′-yl)amino)-1-(pyrrolidin-1-yl)ethanone] the same measures were 0.1 to 0.99 µM, less than 0.01 µM and “** (50 to 150-fold selectivity for ROCK2)”.
For `O[C@@H]1CC[C@H](Nc2nccc(-c3nccc(C#Cc4ccc5[nH]ncc5c4)n3)n2)C1` [Ex. 74, (1R,3S)-3-((4-((1H-indazol-5-yl)ethynyl)-[2,4′-bipyrimidin]-2′-yl)amino)cyclopentanol] the same measures were 0.1 to 0.99 µM, less than 0.01 µM and “**** (>500-fold selectivity for ROCK2)”.
In the case of `O=C(O)[C@H]1CC[C@@H](Nc2nccc(-c3nccc(C#Cc4ccc5[nH]ncc5c4)n3)n2)CC1` [Ex. 92, (1s,4s)-4-((4-((1H-Indazol-5-yl)ethynyl)-[2,4′-bipyrimidin]-2′-yl)amino)cyclohexanecarboxylic acid], the Kd on ROCK1 lay in the range of 0.1 to 0.99 µM; on ROCK2 (setting [1]), 0.01 to 0.099 µM. In addition, at ROCK2, the “ROCK2 Selectivity” value was “* (<50-fold selectivity for ROCK2)”.
For `Fc1ccc(CNc2nccc(-c3nccc(C#Cc4ccc5[nH]ncc5c4)n3)n2)cc1` [Ex. 8, 4-((1H-Indazol-5-yl)ethynyl)-N-(4-fluorobenzyl)-[2,4′-bipyrimidin]-2′-amine] the same measures were 1 to 9.9 µM, 0.01 to 0.099 µM and “*** (151 to 500-fold selectivity for ROCK2)”.
On to `Fc1ccc(CNc2nccc(-c3nccc(C#Cc4ccc5[nH]ncc5c4)n3)n2)cn1` [Ex. 47, 4-((1H-Indazol-5-yl)ethynyl)-N-((6-fluoropyridin-3-yl)methyl)-[2,4′-bipyrimidin]-2′-amine], for which the Kd was 1 to 9.9 µM on ROCK1 and 0.01 to 0.099 µM on ROCK2 (setting [1]). For the same compound, the “ROCK2 Selectivity” value on ROCK2 is reported as “** (50 to 150-fold selectivity for ROCK2)”.
For `O=C(CNc1nccc(-c2nccc(C#Cc3ccc4[nH]ncc4c3)n2)n1)N1CC[C@H](O)C1` [Ex. 1, (S)-2-((4-((1H-Indazol-5-yl)ethynyl)-[2,4′-bipyrimidin]-2′-yl)amino)-1-(3-hydroxypyrrolidin-1-yl)ethanone] the same measures were 0.1 to 0.99 µM, less than 0.01 µM and “** (50 to 150-fold selectivity for ROCK2)”.
Take `O=S1(=O)CCC(CNc2nccc(-c3nccc(C#Cc4ccc5[nH]ncc5c4)n3)n2)CC1` [Ex. 85, 4-(((4-((1H-Indazol-5-yl)ethynyl)-[2,4′-bipyrimidin]-2′-yl)amino)methyl)tetrahydro-2H-thiopyran 1,1-dioxide]: the Kd at ROCK1 was 1 to 9.9 µM; on ROCK2 (setting [1]), less than 0.01 µM. For the same compound, the “ROCK2 Selectivity” value at ROCK2 was “*** (151 to 500-fold selectivity for ROCK2)”.
`Fc1cnccc1CNc1nccc(-c2nccc(C#Cc3ccc4[nH]ncc4c3)n2)n1` [Ex. 31, 4-((1H-Indazol-5-yl)ethynyl)-N-((3-fluoropyridin-4-yl)methyl)-[2,4′-bipyrimidin]-2′-amine]: the Kd on ROCK1 is 1 to 9.9 µM; at ROCK2 (setting [1]), 0.01 to 0.099 µM. Moreover, the “ROCK2 Selectivity” value on ROCK2 is recorded as “** (50 to 150-fold selectivity for ROCK2)”.
In the same order, the values of `Fc1ncccc1CNc1nccc(-c2nccc(C#Cc3ccc4[nH]ncc4c3)n2)n1` [Ex. 6, 4-((1H-Indazol-5-yl)ethynyl)-N-((2-fluoropyridin-3-yl)methyl)-[2,4′-bipyrimidin]-2′-amine] are 0.01 to 0.099 µM, less than 0.01 µM and “* (<50-fold selectivity for ROCK2)”.
`OC[C@H]1CC[C@@H](CNc2nccc(-c3nccc(C#Cc4ccc5[nH]ncc5c4)n3)n2)O1` [Ex. 51, ((2R,5S)-5-(((4-((1H-Indazol-5-yl)ethynyl)-[2,4′-bipyrimidin]-2′-yl)amino)methyl)tetrahydrofuran-2-yl)methanol]: the Kd was 0.1 to 0.99 µM on ROCK1 and less than 0.01 µM at ROCK2 (setting [1]). Further, the “ROCK2 Selectivity” value on ROCK2 was “*** (151 to 500-fold selectivity for ROCK2)”.
Consider `CN(C)C(=O)CNc1nccc(-c2nccc(C#Cc3ccc4[nH]nc(F)c4c3)n2)n1` [Ex. 46, 2-((4-((3-Fluoro-1H-indazol-5-yl)ethynyl)-[2,4′-bipyrimidin]-2′-yl)amino)-N,N-dimethylacetamide], for which the Kd at ROCK1 is 1 to 9.9 µM; at ROCK2 (setting [1]), 0.01 to 0.099 µM. The “ROCK2 Selectivity” value at ROCK2 is “** (50 to 150-fold selectivity for ROCK2)”.
For `C(#Cc1ccnc(-c2ccnc(NCc3nc4ccccc4[nH]3)n2)n1)c1ccc2[nH]ncc2c1` [Ex. 57, N-((1H-Benzo[d]imidazol-2-yl)methyl)-4-((1H-indazol-5-yl)ethynyl)-[2,4′-bipyrimidin]-2′-amine] the same measures were 10 to 100 µM, 0.01 to 0.099 µM and “**** (>500-fold selectivity for ROCK2)”.
For `COc1cc(F)ccc1CNc1nccc(-c2nccc(C#Cc3ccc4[nH]ncc4c3)n2)n1` [Ex. 12, 4-((1H-Indazol-5-yl)ethynyl)-N-(4-fluoro-2-methoxybenzyl)-[2,4′-bipyrimidin]-2′-amine] the same measures were 1 to 9.9 µM, 0.01 to 0.099 µM and “*** (151 to 500-fold selectivity for ROCK2)”.
In the same order, the values of `Fc1cc(C#Cc2ccnc(-c3ccnc(NCC4CCCO4)n3)n2)cc2cn[nH]c12` (stereo not drawn) [Ex. 49, 4-((7-Fluoro-1H-indazol-5-yl)ethynyl)-N-((tetrahydrofuran-2-yl)methyl)-[2,4′-bipyrimidin]-2′-amine] are 1 to 9.9 µM, less than 0.01 µM and “*** (151 to 500-fold selectivity for ROCK2)”.
For the compound `CN(C)C(=O)CNc1nccc(-c2nccc(C#Cc3ccc4[nH]ncc4c3)n2)n1` [Ex. 19, 2-((4-((1H-Indazol-5-yl)ethynyl)-[2,4′-bipyrimidin]-2′-yl)amino)-N,N-dimethylacetamide], the results for the Kd on ROCK1 and on ROCK2 (setting [1]) were 0.1 to 0.99 µM and 0.01 to 0.099 µM, respectively. At ROCK2, the “ROCK2 Selectivity” value was “** (50 to 150-fold selectivity for ROCK2)”.
For `C(#Cc1ccnc(-c2ccnc(NCc3ccco3)n2)n1)c1ccc2[nH]ncc2c1` [Ex. 40, 4-((1H-Indazol-5-yl)ethynyl)-N-(furan-2-ylmethyl)-[2,4′-bipyrimidin]-2′-amine] the same measures were 0.1 to 0.99 µM, 0.01 to 0.099 µM and “* (<50-fold selectivity for ROCK2)”.
For `COC(=O)[C@H]1CC[C@H](Nc2nccc(-c3nccc(C#Cc4ccc5[nH]ncc5c4)n3)n2)CC1` [Ex. 86, (1r,4r)-Methyl 4-((4-((1H-indazol-5-yl)ethynyl)-[2,4′-bipyrimidin]-2′-yl)amino)cyclohexanecarboxylate] the same measures were 0.1 to 0.99 µM, less than 0.01 µM and “*** (151 to 500-fold selectivity for ROCK2)”.
As for `C(#Cc1ccnc(-c2ccnc(NCC3CCCCN3)n2)n1)c1ccc2[nH]ncc2c1` (stereo not drawn) [Ex. 9, 4-((1H-Indazol-5-yl)ethynyl)-N-(piperidin-2-ylmethyl)-[2,4′-bipyrimidin]-2′-amine], the Kd lay in the range of 1 to 9.9 µM on ROCK1 and 0.1 to 0.99 µM on ROCK2 (setting [1]). Besides, the “ROCK2 Selectivity” value on ROCK2 was “* (<50-fold selectivity for ROCK2)”.
